From patent US20200299777A1, “Methods for Resensitizing p53-Null Cells to Cancer Chemotherapy” (UNIVERSITY OF SOUTH CAROLINA, priority 2019, published 2020)

How the values were obtained:
[1] = tested on: TP53-WT hESCs; assay: Cell viability assay (resazurin), TP53 wild-type human ES cells; assay type: cell-based; settings: for sensitivity of TP53-WT hESCs (cell viability): all tested concentrations
Procedure: (§1) Human H9 embryonic stem cells (ESCs) (Lot No.: WIC-WA09-MB-001, WiCell, Wisconsin) and derivatives were maintained at 37° C., 5% CO2 in chemical-defined medium TeSR-E8 medium (Stemcell Tech.) with 100 U/ml penicillin & 100 μg/ml streptomycin (Gibco) on Matrigel-coated (# CB40230A, Corning) tissue culture vessels. Authentication of H9 ESCs were performed by WiCell. ESCs were passaged every 4 to 6 days to maintain sub-confluence using 0.5 mM EDTA as described previously. Human colon cancer RKO cells (kindly given by Dr. Bert Vogelstein) and its derivatives were maintained at 37° C., 5% CO2 in McCoy's 5A media (Fisher) supplemented with 10% FBS and 100 U/ml penicillin & 100 μg/ml streptomycin (Gibco). RKO cells were passaged every 3 to 4 days to maintain sub-confluence (authentication of RKO cell line was performed by JHU-GRCF Biorepository & Cell Center). Cells were screened for mycoplasma before experiments using a MycoAlert™ Mycoplasma Detection Kit (Lonza).
(§2) NCI Approved Oncology Drug Set IV containing 127 FDA-approved anticancer drugs was obtained from the NCI under a material transfer agreement. TP53 knockout or wild-type human ES cells were seeded in 96-well microplates in E8 medium, with 6,000 cells per well that would reach about 85% confluent at the end of the assay. Human ES cells were plated one day before treatment with a 7-point two-fold dilution series (starting with 10 μM) of each compound or solvent (dimethyl sulfoxide, DMSO or Dimethylformamide, DMF) control. After 72 hours incubation, cells were stained with 35 μM resazurin (Sigma), then quantification of fluorescent signal intensity was performed on Thermo Fluorskan™ Ascent plate reader at excitation and emission wavelengths of 544/590 nm. Data were normalized to the solvent control (DMSO or DMF) group. The area under a curve (AUC) was calculated using auc function (flux package) in R. The two-side t-test was performed with tlest function in R. The hierarchical clustering analysis of drugs AUC pattern in different samples was carried out using heatmap.2 function (gplots package) in R (All R code available). Viability response curves of Cisplatin and Paclitaxel on TP53-KO hESCs or RKO cells were generated using drc package (Analysis of Dose-Response Curves) in R.

[2] = tested on: TP53-KO hESCs; assay: Cell viability assay (resazurin), TP53 knockout human ES cells; assay type: cell-based; settings: for sensitivity/resistance of TP53-KO hESCs (cell viability): 7-point two-fold dilution starting with 10 μM
Procedure: as §1
TP53 knockout hESCs and RKO cells were generated using CRISPR/Cas9 as described previously with minor modifications. Briefly, human codon-optimized Streptococcus pyogenes wild type Cas9 (Cas9-2A-GFP) was obtained from Addgene (#44719). Chimeric guide RNA expression cassettes with different small guide RNA, TP53_Up_sgRNA: 5′-[…]-3′ (SEQ ID NO: 1) and TP53_Down_sgRNA: 5′-[…]-3′ (SEQ ID NO: 2) were ordered as gBlock. These gBlocks were amplified by PCR using primers: gBlock_Amplifying_F: 5′-[…]-3′ (SEQ ID NO: 3) and gBlock_Amplifying_R: 5′-[…]-3′ (SEQ ID NO: 4). The PCR product was purified by Agencourt Ampure XP PCR Purification beads according to manufacturer's protocol (Beckman Coulter). 1.5 μg of Cas9 plasmid and 0.5 μg of each gRNAgBlock were co-transfected into hESCs via Lipofectamine™ 3000 (Thermo Fisher Scientific). […] For TP53-KO RKO cells, single clones were picked up and validated by PCR and Western blotting.
as §2

[3] = tested on: TP53-KO RKO cells; assay: Cisplatin viability response on TP53 knockout RKO colon cancer cells; assay type: cell-based, human
Procedure: as §1, with “RKO cells were passaged every 3 to 4 days to maintain sub-confluence (authentication of RKO cell line was performed by JHU-GRCF Biorepository & Cell Center). Cells were screened for mycoplasma before experiments using a MycoAlert™ Mycoplasma Detection Kit (Lonza).” left out
NCI Approved Oncology Drug Set IV containing 127 FDA-approved anticancer drugs was obtained from the NCI under a material transfer agreement. […] After 72 hours incubation, cells were stained with 35 μM resazurin (Sigma), then quantification of fluorescent signal intensity was performed on Thermo Fluorskan™ Ascent plate reader at excitation and emission wavelengths of 544/590 nm. […] The area under a curve (AUC) was calculated using auc function (flux package) in R. The two-side t-test was performed with tlest function in R. The hierarchical clustering analysis of drugs AUC pattern in different samples was carried out using heatmap.2 function (gplots package) in R (All R code available). […]

[4] = tested on: TP53-KO hESCs; assay: Paclitaxel and Cisplatin drug synergy experiment on TP53-KO hESCs; assay type: cell-based, human; settings: low concentration Paclitaxel plus Cisplatin matrix, 72 hours, ZIP synergy model
Procedure: (§3) A Paclitaxel and Cisplatin drug matrix (12×8) in a 96-well plate was made for drug synergy experiment. Paclitaxel on row was an 11-point two-fold dilution series with starting concentration of 0.0016 μM, and Cisplatin on column was a 7-point two-fold dilution series with starting concentration of 2 μM, 5000 TP53-KO hESCs per well or 2000 TP53-KO RKO cells per well were plated on three 96-well plates one day before treatment with Paclitaxel and Cisplatin drug matrix. After 72 hours incubation for TP53-KO hESCs and 96 hours incubation for TP53-KO RKO cells, cells were stained with 35 μM resazurin (Sigma), then quantification of fluorescent signal intensity was performed on Thermo Fluorskan™ Ascent plate reader at excitation and emission wavelengths of 544/590 nm. The drug synergy scores were evaluated using ZIP model (Zero Interaction Potency model) in synergyfinder package.

[5] = tested on: TP53-KO RKO cells; assay: Paclitaxel and Cisplatin drug synergy experiment on TP53-KO RKO cells; assay type: cell-based, human; settings: Paclitaxel plus Cisplatin matrix, 96 hours, two TP53-KO clones, ZIP synergy model
Procedure: as §3

[6] = tested on: ZNF207/BuGZ knockout TP53-KO hESCs; assay: Validation of ZNF207/BuGZ knockout in Cas9-expressing TP53-KO hESCs treated with Cisplatin (qPCR of knockout locus); assay type: cell-based, human
Procedure: Human TP53 knockout embryonic stem cells were infected at low MOI by viruses produced using pCLIP-Cas9-Nuclease-EFS-Blast (TransOMIC) and selected using blastcidin (10 μg/ml). The stable Cas9-expressing TP53-KO hESCs were infected with viruses with two sgRNAs against gene ZNF207/BuGZ (# TEDH-1090944, TransOMIC) or control gene OR1C1 (# TEDH-1055091, TransOMIC). These two sgRNAs could induce fragment deletion. We treated these cells with either 200 nM Cisplatin or vehicle DMF. We used realtime quantitative PCR to quantify the ZNF207 knockout locus, using gRNA flanking primers that only amplify when the intervening sequence has been deleted.
The relative percentage of ZNF207 or OR1C1 knockout cell number was defined as:
2^−ΔCT(Gene−LINE)/2^−ΔCT(Gene−LINE) at Day0.

[7] = tested on: TP53-WT hESCs; assay: Cell viability assay (resazurin), TP53 wild-type human ES cells; assay type: cell-based; settings: 200 nM
[8] = 72 hours, resazurin, low concentrations

Row | Structure (SMILES) | sensitivity of TP53-WT hESCs at low concentration (cell viability) ([1]; 72 hours, resazurin) | sensitivity/resistance of TP53-KO hESCs (cell viability) ([2]; 72 hours, resazurin) | sensitivity of TP53-WT hESCs (cell viability) ([1]; 72 hours, resazurin) | further results
1 | O=C(c1cc(Cc2n[nH]c(=O)c3ccccc23)ccc1F)N1CCN(C(=O)C2CC2)CC1 [Olaparib] | very sensitive | resistant |  | 
2 | O=C1[O][Pt]2([NH][C@@H]3CCCC[C@H]3[NH]2)[O]C1=O [Oxaliplatin] |  | resistant |  | sensitivity of TP53-WT hESCs at low concentration (0.16 μM) ([1]; 72 hours, resazurin): very sensitive
3 | CCCCCOC(=O)Nc1nc(=O)n([C@@H]2O[C@H](C)[C@@H](O)[C@H]2O)cc1F [Capecitabine] |  | resistant | resistant | 
4 | CC(=O)O[C@H]1C(=O)[C@@]2(C)[C@H]([C@H](OC(=O)c3ccccc3)[C@]3(O)C[C@H](OC(=O)[C@H](O)[C@@H](NC(=O)c4ccccc4)c4ccccc4)C(C)=C1C3(C)C)[C@]1(OC(C)=O)CO[C@@H]1C[C@@H]2O [Paclitaxel] |  | sensitive | sensitive | 
5 | CCc1c2c(nc3ccc(OC(=O)N4CCC(N5CCCCC5)CC4)cc13)-c1cc3c(c(=O)n1C2)COC(=O)[C@]3(O)CC [Irinotecan] |  | resistant |  | sensitivity of TP53-WT hESCs at low concentration (0.16 μM) ([1]; 72 hours, resazurin): very sensitive
6 | N.N.[Cl][Pt][Cl] [Cisplatin] | very sensitive | resistant |  | resistance of TP53-KO hESCs at the optimal concentration ([2]; 200 nM): very resistant; resistance of TP53-KO RKO cells compared to TP53-WT RKO cells [3]: resistant; inhibition of Cisplatin on TP53-KO hESCs in combination with Paclitaxel [4]: increased; inhibition of Cisplatin on TP53-KO RKO cells in combination with Paclitaxel [5]: increased greatly; sensitivity of ZNF207/BuGZ knockout TP53-KO hESCs ([6]; 200 nM vs vehicle DMF, two more TP53-KO hESC lines): more sensitive; depletion of ZNF207/BuGZ knockout cells versus DMF vehicle control ([6]; 200 nM, ten days, qPCR at day 6 and 10): depleted faster; sensitivity of TP53-WT hESCs at the optimal concentration [7]: very sensitive
7 | O=c1[nH]cc(F)c(=O)[nH]1 [Fluorouracil] |  |  |  | sensitivity of TP53-WT hESCs at high concentrations ([1]; 72 hours, resazurin, high concentrations): sensitive; resistance of TP53-WT hESCs at low concentrations [1, 8]: resistant; resistance of TP53-KO hESCs at low concentrations [2, 8]: resistant
8 | COc1ccc(C2=N[C@@H](c3ccc(Cl)cc3)[C@@H](c3ccc(Cl)cc3)N2C(=O)N2CCNC(=O)C2)c(OC(C)C)c1 [Nutlin-3a] |  |  |  | growth inhibitory effect on TP53-WT hESCs ([1]; very low concentrations): severely growth arrested
9 | CC(=O)O[C@@]12CO[C@@H]1C[C@H](O)[C@@]1(C)C(=O)[C@H](O)C3=C(C)[C@@H](OC(=O)[C@H](O)[C@@H](NC(=O)OC(C)(C)C)c4ccccc4)C[C@@](O)([C@@H](OC(=O)c4ccccc4)[C@H]21)C3(C)C [Docetaxel] |  | sensitive | sensitive | 
10 | N.N.O=C([O-])C1(C(=O)[O-])CCC1.[Pt+2] [Carboplatin] | very sensitive | resistant |  | 
